Test results published in US20080009418A1, “Selective Inhibitors” (Alchemia LTD., priority 2004, published 2008).

Key:
[1] = molecular target: T1, Human melanin-concentrating hormone (MCH1) (Homo sapiens, UniProt Q99705); test: Radioligand binding, human melanin-concentrating hormone MCH1 membranes, FlashPlate, [125I]-S36057; conditions: compound at 10 μM; for A6 radioligand binding, percentage inhibition / A6: inhibition of radioligand binding, human melanin-concentrating hormone (MCH1): [125I]-S36057
T1 construct: purchased Perkin Elmer Biosignal
Outline: (§1)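 Cloned human receptor membranes were coated onto FlashPlate wells and incubated with radioligand and compound (added from a 0.5 mM DMSO daughter plate) for 1 hour at room temperature in the dark. Scintillation counting gave percent inhibition, with DMSO defining total and reference ligand defining non-specific binding.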

[2] = molecular target: T2, Human Melanocortin (MC4) (Homo sapiens, UniProt P32245); test: Radioligand binding, human melanocortin MC4 membranes, FlashPlate, [125I]-NDP-αMSH; conditions: compound at 10 μM, [125I]-NDP-αMSH
T2 construct: purchased Perkin Elmer Biosignal
Outline: as §1

[3] = molecular target: T3, Human neuropeptide Y (NPY-Y1) (Homo sapiens, UniProt P25929); test: Radioligand binding, human neuropeptide Y NPY-Y1 membranes, FlashPlate, [125I]-PYY; conditions: compound at 10 μM, [125I]-PYY
T3 construct: purchased Perkin Elmer Biosignal
T3 sequence (P25929 1-384): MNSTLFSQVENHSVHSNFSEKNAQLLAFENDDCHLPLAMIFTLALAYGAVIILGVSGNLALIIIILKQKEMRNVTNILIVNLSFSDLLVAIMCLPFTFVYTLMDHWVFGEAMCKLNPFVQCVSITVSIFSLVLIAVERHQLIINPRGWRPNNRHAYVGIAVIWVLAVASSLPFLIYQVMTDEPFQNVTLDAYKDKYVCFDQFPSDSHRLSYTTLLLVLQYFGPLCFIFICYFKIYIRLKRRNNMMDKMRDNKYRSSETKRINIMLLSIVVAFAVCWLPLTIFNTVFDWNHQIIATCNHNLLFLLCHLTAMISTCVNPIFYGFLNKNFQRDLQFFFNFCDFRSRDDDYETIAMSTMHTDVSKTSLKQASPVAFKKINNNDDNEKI
Outline: as §1

[4] = molecular target: T4, Human δ-opioid (DOP) (Homo sapiens, UniProt P41143); test: Radioligand binding, human δ-opioid (DOP) membranes, FlashPlate, [3H]-Bremazocine; conditions: compound at 10 μM, [3H]-Bremazocine
T4 construct: purchased Perkin Elmer Biosignal
Outline: as §1

[5] = molecular target: T5, Mouse urotensin (mUR2) (Mus musculus, UniProt Q8VIH9); test: Radioligand binding, mouse urotensin mUR2 membranes, FlashPlate, [125I]-Urotensin II; conditions: compound at 10 μM, [125I]-Urotensin II
T5 construct: purchased Perkin Elmer Biosignal
T5 sequence (Q8VIH9 1-385): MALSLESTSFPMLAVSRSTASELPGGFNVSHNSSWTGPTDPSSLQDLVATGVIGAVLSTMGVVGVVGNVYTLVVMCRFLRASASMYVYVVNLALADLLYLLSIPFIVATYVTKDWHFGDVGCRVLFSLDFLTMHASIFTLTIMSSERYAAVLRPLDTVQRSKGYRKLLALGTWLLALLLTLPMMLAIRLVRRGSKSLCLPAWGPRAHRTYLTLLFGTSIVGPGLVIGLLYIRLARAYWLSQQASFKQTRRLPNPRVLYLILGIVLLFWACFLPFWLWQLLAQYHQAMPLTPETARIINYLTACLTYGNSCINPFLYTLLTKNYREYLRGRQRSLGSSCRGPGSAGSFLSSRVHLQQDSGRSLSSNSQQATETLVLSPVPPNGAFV
Outline: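 Cloned mouse urotensin (mUR2) receptor membranes from Perkin Elmer Biosignal were immobilized in FlashPlate microplates using a proprietary coating. Each well got 19.5 μl buffer, then 0.5 μl of DMSO, reference ligand, or compound. Adding 5 μl of [125I]-Urotensin II, diluted to 5× final concentration in binding buffer, started binding. Plates were sealed with TopSeal-A and incubated 1 hour at room temperature in the dark. Wells were counted for 30 seconds each on a TopCount after a 60-second delay, and percentage inhibition was calculated.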

[6] = molecular target: T6, Human neurokinin (NK1) (Homo sapiens, UniProt P25103); test: Radioligand binding, human neurokinin NK1 membranes, filtration, [125I]-Substance P; conditions: compound at 10 μM, [125I]-Substance P
T6 construct: purchased Perkin Elmer Biosignal
Outline: (§2)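 Percent inhibition of radioligand binding measured on recombinant human membranes: NK1 with [125I]-Substance P, KOP with [3H]-Diprenorphine. Incubation 1 h at room temperature, then harvest onto 0.3% PEI-soaked filters, cold Tris-HCl pH 7.4 washes and scintillation counting; non-specific binding from reference ligand wells.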

[7] = molecular target: T7, Human Melanocortin (MC3) (Homo sapiens, UniProt P41968); test: Radioligand binding, human melanocortin MC3 membranes, FlashPlate, [125I]-NDP-αMSH; conditions: compound at 10 μM, [125I]-NDP-αMSH
T7 construct: purchased Perkin Elmer Biosignal
Outline: as §1

[8] = molecular target: T8, Human opioid (ORL1) (Homo sapiens, UniProt P41146); test: Radioligand binding, human opioid ORL1 membranes, FlashPlate, [125I]-Nociceptin; conditions: compound at 10 μM, [125I]-Nociceptin
T8 construct: purchased Perkin Elmer Biosignal
Outline: as §1

[9] = molecular target: T9, Human μ-opioid (MOP) (Homo sapiens, UniProt P35372); test: Radioligand binding, human μ-opioid (MOP) membranes, FlashPlate, [3H]-Naloxone; conditions: compound at 10 μM, [3H]-Naloxone
T9 construct: purchased Perkin Elmer Biosignal
Outline: as §1

[10] = molecular target: T10, Human κ-Opioid (KOP) (Homo sapiens, UniProt P41145); test: Radioligand binding, human κ-opioid (KOP) membranes, filtration, [3H]-Diprenorphine; conditions: compound at 10 μM, [3H]-Diprenorphine
T10 construct: purchased Perkin Elmer Biosignal
Outline: as §2

[11] = molecular target: T11, Human melanocortin (MC5) (Homo sapiens, UniProt P33032); test: Radioligand binding, human melanocortin MC5 membranes, FlashPlate, [125I]-NDP-αMSH; conditions: compound at 10 μM, [125I]-NDP-αMSH
T11 construct: purchased Perkin Elmer Biosignal
Outline: as §1

T6 sequence (P25103 whole entry): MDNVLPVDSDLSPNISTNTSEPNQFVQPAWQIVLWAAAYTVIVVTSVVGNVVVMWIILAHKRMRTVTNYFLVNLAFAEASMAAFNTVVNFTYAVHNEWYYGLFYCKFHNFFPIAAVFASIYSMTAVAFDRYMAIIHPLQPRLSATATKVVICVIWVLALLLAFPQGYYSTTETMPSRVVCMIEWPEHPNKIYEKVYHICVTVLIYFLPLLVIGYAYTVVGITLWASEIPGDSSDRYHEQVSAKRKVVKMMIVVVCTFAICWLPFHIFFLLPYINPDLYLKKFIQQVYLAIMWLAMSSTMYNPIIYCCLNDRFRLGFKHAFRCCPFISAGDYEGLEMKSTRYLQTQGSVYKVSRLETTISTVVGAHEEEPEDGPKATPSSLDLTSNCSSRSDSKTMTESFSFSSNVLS
T4 sequence (P41143 whole entry): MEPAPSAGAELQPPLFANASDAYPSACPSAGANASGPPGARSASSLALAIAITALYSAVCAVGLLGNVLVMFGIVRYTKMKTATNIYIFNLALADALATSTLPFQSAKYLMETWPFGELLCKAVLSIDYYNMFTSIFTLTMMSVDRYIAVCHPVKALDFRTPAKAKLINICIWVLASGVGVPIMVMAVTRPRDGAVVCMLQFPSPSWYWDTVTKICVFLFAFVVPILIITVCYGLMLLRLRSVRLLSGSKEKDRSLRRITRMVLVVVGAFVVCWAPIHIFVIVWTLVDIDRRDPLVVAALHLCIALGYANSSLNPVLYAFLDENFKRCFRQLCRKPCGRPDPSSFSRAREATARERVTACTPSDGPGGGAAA
T2 sequence (P32245 whole entry): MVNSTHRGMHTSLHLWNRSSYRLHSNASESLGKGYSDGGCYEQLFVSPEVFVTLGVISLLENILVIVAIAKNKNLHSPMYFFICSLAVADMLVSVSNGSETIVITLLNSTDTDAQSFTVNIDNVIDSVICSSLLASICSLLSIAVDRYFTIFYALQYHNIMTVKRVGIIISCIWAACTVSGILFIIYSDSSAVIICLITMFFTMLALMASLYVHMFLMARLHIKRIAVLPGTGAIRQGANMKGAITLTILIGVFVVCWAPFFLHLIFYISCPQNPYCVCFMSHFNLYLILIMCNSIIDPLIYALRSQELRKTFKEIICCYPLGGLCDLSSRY
T7 sequence (P41968 whole entry): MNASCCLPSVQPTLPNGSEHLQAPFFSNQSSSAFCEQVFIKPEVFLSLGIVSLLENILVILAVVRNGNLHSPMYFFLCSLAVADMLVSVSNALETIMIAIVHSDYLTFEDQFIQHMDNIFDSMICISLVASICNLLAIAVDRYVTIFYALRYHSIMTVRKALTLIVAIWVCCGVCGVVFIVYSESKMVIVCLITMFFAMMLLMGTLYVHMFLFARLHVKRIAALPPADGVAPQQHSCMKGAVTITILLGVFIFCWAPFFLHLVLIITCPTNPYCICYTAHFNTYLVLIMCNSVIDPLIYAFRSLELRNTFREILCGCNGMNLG
T9 sequence (P35372 whole entry): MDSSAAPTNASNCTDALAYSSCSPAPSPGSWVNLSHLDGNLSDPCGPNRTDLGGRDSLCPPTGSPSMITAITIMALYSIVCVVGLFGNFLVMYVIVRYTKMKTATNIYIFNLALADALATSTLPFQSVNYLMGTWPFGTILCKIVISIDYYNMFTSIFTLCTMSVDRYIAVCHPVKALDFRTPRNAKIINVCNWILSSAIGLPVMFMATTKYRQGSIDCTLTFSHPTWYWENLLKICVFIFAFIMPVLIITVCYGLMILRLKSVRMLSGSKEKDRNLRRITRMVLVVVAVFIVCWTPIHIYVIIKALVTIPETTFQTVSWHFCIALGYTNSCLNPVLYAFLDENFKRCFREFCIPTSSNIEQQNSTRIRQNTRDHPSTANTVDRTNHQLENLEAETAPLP
T11 sequence (P33032 whole entry): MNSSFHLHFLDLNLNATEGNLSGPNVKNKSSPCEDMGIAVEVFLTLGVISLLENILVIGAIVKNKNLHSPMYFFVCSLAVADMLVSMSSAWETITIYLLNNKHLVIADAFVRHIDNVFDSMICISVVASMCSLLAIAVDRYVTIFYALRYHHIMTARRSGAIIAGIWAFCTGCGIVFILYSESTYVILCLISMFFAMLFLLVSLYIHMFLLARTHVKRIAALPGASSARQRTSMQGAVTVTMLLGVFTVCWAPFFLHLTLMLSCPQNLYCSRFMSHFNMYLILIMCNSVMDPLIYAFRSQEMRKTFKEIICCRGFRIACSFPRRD
T10 sequence (P41145 whole entry): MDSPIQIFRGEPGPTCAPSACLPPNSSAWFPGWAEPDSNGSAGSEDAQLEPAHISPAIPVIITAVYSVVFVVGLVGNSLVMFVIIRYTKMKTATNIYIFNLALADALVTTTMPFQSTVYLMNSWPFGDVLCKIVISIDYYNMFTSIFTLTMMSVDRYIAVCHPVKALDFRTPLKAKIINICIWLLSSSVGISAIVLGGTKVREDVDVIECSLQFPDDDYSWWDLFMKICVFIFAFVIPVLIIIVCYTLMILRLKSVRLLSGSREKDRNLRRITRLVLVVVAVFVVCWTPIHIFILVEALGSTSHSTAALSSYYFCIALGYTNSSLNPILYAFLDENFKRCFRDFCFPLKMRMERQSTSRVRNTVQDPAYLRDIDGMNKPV
T8 sequence (P41146 whole entry): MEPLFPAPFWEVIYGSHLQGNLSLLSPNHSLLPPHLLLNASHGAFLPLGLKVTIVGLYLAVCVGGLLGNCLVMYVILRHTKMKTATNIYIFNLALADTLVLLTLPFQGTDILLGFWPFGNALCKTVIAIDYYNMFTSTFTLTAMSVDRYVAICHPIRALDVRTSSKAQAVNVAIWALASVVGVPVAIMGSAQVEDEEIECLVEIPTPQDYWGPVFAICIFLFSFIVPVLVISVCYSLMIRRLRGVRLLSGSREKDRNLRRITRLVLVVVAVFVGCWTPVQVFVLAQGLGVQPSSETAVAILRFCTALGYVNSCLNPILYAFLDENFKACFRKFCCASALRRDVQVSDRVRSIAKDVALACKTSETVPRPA
T1 sequence (Q99705 whole entry): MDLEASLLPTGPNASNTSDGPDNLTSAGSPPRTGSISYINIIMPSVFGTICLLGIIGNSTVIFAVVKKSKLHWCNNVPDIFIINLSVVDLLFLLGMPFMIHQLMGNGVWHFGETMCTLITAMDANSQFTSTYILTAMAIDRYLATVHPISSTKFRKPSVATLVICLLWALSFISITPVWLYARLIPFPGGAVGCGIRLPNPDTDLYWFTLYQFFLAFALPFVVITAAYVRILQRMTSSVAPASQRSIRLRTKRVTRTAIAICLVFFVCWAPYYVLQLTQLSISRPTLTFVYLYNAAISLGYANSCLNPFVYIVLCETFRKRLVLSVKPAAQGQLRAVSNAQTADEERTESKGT

SMILES | A6 radioligand binding, percentage inhibition [1] | A4 radioligand binding, percentage inhibition [2] | A9 radioligand binding, percentage inhibition [3] | A1 radioligand binding, percentage inhibition [4] | A11 radioligand binding, percentage inhibition [5] | A8 radioligand binding, percentage inhibition [6] | A3 radioligand binding, percentage inhibition [7] | A10 radioligand binding, percentage inhibition [8] | A7 radioligand binding, percentage inhibition [9] | A2 radioligand binding, percentage inhibition [10] | A5 radioligand binding, percentage inhibition [11] | A9: inhibition of radioligand binding, human neuropeptide Y (NPY-Y1) [3] | A1: inhibition of radioligand binding, human δ-opioid (DOP) [4] | A8: inhibition of radioligand binding, human neurokinin (NK1) [6] | other results
CO[C@H]1[C@H](O)[C@@H](COCc2ccccc2)OC(OCCc2ccccc2)[C@@H]1NC(=O)CCNC(=N)N (stereo partly shown) [compound 117] | − (“−” indicates less than 50% inhibition at 10 μM) | − (“−” indicates less than 50% inhibition at 10 μM) | − (“−” indicates less than 50% inhibition at 10 μM) | − (“−” indicates less than 50% inhibition at 10 μM) | − (“−” indicates less than 50% inhibition at 10 μM) | + (“+” indicates greater than 50% inhibition at 10 μM) | − (“−” indicates less than 50% inhibition at 10 μM) | − (“−” indicates less than 50% inhibition at 10 μM) | − (“−” indicates less than 50% inhibition at 10 μM) | + (“+” indicates greater than 50% inhibition at 10 μM) | − (“−” indicates less than 50% inhibition at 10 μM) |  |  |  | 
COC[C@H]1OC(OCc2ccc3ccccc3c2)[C@H](NC(=O)CCCN)[C@@H](OCc2ccc3ccccc3c2)[C@@H]1O (stereo partly shown) [compound 338] |  |  |  |  |  |  |  |  |  |  |  | − (“−” indicates less than 50% inhibition at 10 μM) | − (“−” indicates less than 50% inhibition at 10 μM) | + (“+” indicates greater than 50% inhibition at 10 μM) | A6: inhibition of radioligand binding, human melanin-concentrating hormone (MCH1) [1]: − (“−” indicates less than 50% inhibition at 10 μM); A4: inhibition of radioligand binding, human melanocortin (MC4) [2]: − (“−” indicates less than 50% inhibition at 10 μM); A11: inhibition of radioligand binding, mouse urotensin (mUR2) [5]: − (“−” indicates less than 50% inhibition at 10 μM); A3: inhibition of radioligand binding, human melanocortin (MC3) [7]: − (“−” indicates less than 50% inhibition at 10 μM); A10: inhibition of radioligand binding, human opioid (ORL1) [8]: − (“−” indicates less than 50% inhibition at 10 μM); A7: inhibition of radioligand binding, human μ-opioid (MOP) [9]: + (“+” indicates greater than 50% inhibition at 10 μM); A2: inhibition of radioligand binding, human κ-opioid (KOP) [10]: − (“−” indicates less than 50% inhibition at 10 μM); A5: inhibition of radioligand binding, human melanocortin (MC5) [11]: − (“−” indicates less than 50% inhibition at 10 μM)
COC[C@H]1OC(OCCc2ccccc2)[C@H](NC(=O)CCCN)[C@@H](OCc2ccc3ccccc3c2)[C@@H]1O (single isomer, unassigned) [compound 345] |  |  |  |  |  |  |  |  |  |  |  | − (“−” indicates less than 50% inhibition at 10 μM) | − (“−” indicates less than 50% inhibition at 10 μM) | + (“+” indicates greater than 50% inhibition at 10 μM) | A6: inhibition of radioligand binding, human melanin-concentrating hormone (MCH1) ([1]; 10 µM): − (“−” indicates less than 50% inhibition at 10 μM); A4: inhibition of radioligand binding, human melanocortin (MC4) ([2]; 10 µM): − (“−” indicates less than 50% inhibition at 10 μM); A11: inhibition of radioligand binding, mouse urotensin (mUR2) ([5]; 10 µM): − (“−” indicates less than 50% inhibition at 10 μM); A3: inhibition of radioligand binding, human melanocortin (MC3) ([7]; 10 µM): − (“−” indicates less than 50% inhibition at 10 μM); A10: inhibition of radioligand binding, human opioid (ORL1) ([8]; 10 µM): − (“−” indicates less than 50% inhibition at 10 μM); A7: inhibition of radioligand binding, human μ-opioid (MOP) ([9]; 10 µM): − (“−” indicates less than 50% inhibition at 10 μM); A2: inhibition of radioligand binding, human κ-opioid (KOP) ([10]; 10 µM): − (“−” indicates less than 50% inhibition at 10 μM); A5: inhibition of radioligand binding, human melanocortin (MC5) ([11]; 10 µM): − (“−” indicates less than 50% inhibition at 10 μM)
CO[C@H]1[C@H](O)[C@@H](COCc2ccc3ccccc3c2)OC(OCc2ccc(Cl)cc2)[C@@H]1NC(=O)CCNC(=N)N (stereo partly shown) [compound 98] | + (“+” indicates greater than 50% inhibition at 10 μM) | + (“+” indicates greater than 50% inhibition at 10 μM) | − (“−” indicates less than 50% inhibition at 10 μM) | − (“−” indicates less than 50% inhibition at 10 μM) | − (“−” indicates less than 50% inhibition at 10 μM) | + (“+” indicates greater than 50% inhibition at 10 μM) | − (“−” indicates less than 50% inhibition at 10 μM) | − (“−” indicates less than 50% inhibition at 10 μM) | − (“−” indicates less than 50% inhibition at 10 μM) | − (“−” indicates less than 50% inhibition at 10 μM) | + (“+” indicates greater than 50% inhibition at 10 μM) |  |  |  | 
CSC1O[C@H](COCc2ccc(-c3ccccc3)cc2)[C@@H](O)[C@@H](OCc2ccc(Cl)cc2)[C@H]1NC(=O)CCN (stereo partly shown) [compound 276] |  |  |  |  |  |  |  |  |  |  |  |  |  |  | A6: inhibition of radioligand binding ([1]; [125I]-S36057, FlashPlate): − (“−” indicates less than 50% inhibition at 10 μM); A4: inhibition of radioligand binding ([2]; FlashPlate): − (“−” indicates less than 50% inhibition at 10 μM); A9: inhibition of radioligand binding ([3]; FlashPlate): − (“−” indicates less than 50% inhibition at 10 μM); A1: inhibition of radioligand binding ([4]; FlashPlate): − (“−” indicates less than 50% inhibition at 10 μM); A11: inhibition of radioligand binding ([5]; FlashPlate): − (“−” indicates less than 50% inhibition at 10 μM); A8: inhibition of radioligand binding ([6]; filtration): + (“+” indicates greater than 50% inhibition at 10 μM); A3: inhibition of radioligand binding ([7]; FlashPlate): − (“−” indicates less than 50% inhibition at 10 μM); A10: inhibition of radioligand binding ([8]; FlashPlate): − (“−” indicates less than 50% inhibition at 10 μM); A7: inhibition of radioligand binding ([9]; FlashPlate): − (“−” indicates less than 50% inhibition at 10 μM); A2: inhibition of radioligand binding ([10]; filtration): − (“−” indicates less than 50% inhibition at 10 μM); A5: inhibition of radioligand binding ([11]; FlashPlate): − (“−” indicates less than 50% inhibition at 10 μM)
